Data: patent US7514438B2, “Melanin concentrating hormone receptor antagonist” (Amgen, Inc., priority 2003, dated 2009)
Like-named read-outs stand apart in the source and are kept apart here.

What was measured:
[1] = molecular target: T1, rat MCH 1 receptor (rMCH1R) (Rattus norvegicus, UniProt P97639); test: 125I-MCH ligand binding assay, rMCH; conditions: HEK 293 membranes, 0.2 nM 125I native-MCH, read-out: IC50 in the rMCH binding assay
T1 construct: expressed in transfected cells; host or cells: HEK 293 (membranes)
T1 sequence (P97639 whole entry): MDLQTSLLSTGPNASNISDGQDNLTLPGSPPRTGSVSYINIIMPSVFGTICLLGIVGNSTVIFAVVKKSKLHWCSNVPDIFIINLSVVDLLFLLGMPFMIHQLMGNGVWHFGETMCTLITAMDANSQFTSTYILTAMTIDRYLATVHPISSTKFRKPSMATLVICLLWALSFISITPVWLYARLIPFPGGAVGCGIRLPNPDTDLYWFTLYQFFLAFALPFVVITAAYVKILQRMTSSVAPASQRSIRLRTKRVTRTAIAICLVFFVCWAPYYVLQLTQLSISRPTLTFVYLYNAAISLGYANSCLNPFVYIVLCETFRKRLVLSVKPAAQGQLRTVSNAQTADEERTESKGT
Experimental: (§1) Human embryonic kidney cells (293 total) expressing either human, rat, or mouse MCH receptor were harvested from 150 mm culture dishes using PBS. Spinning at 1500 rpm for 2 minutes initially pelleted cells. The resulting pellet was then homogenized in 15 mL ice cold sucrose buffer (25 mM HEPES, 0.3 M sucrose, pH 7.4) with a motorized, glass fitted, Teflon® homogenizer. The homogenate was centrifuged at 48,000×g at 4° C. for 10 minutes, resuspended in 15 mL assay buffer (25 mM HEPES, 10 mM mgCl2, 0.2% BSA, 0.1 mg/mL STI, 0.1 mg/mL Pefabloc®, 1 μM Phosphoramidon, pH 7.4) with a Tissue-Tearor® (Biospec Products) and centrifuged again at 48,000×g for 10 minutes. The pellet was homogenized for a third time in 15 mL assay buffer using the Tissue-Tearor® and again centrifuged at 48,000×g for 10 minutes. The resulting pellet was resuspended in assay buffer at a wet weight concentration of 10-20 mg/mL.
(§2) Binding assays were determined as described below using mouse, rat or human MCH 1 receptors (mMCH1R, rMCH1R, and hMCH1R, respectively) expressed in HEK 293; IC50 values were calculated.
(§3) Binding assays were performed in 96-well U-bottom plates. Membranes (100 μg tissue) were incubated at 30° C. for 90 minutes in assay buffer with various peptides in the presence of 0.2 nM ^125I native-MCH (Perkin-Elmer Life Sciences, Boston, Mass.) in 100 μL total volume. Non-specific binding was assessed in the presence of 1 μM cold native-MCH. The reaction was terminated by rapid filtration through Unfilter-96 GF/C glass fiber filter plates (FilterMate® 196 Harvester, Packard Instrument Co., Meriden, Conn.) pre-soaked in PBS/0.5% BSA, followed by three washes with 300 μL ice-cold water. Bound radioactivity was determined using a TopCount® microplate scintillation and luminescence counter (Packard Instrument Co., Meriden, Conn.). Nonlinear regression analyses of drug concentration curves were performed using GraphPad Prism® (GraphPad Software, Inc., San Diego, Calif.).

[2] = molecular target: T2, human MCH 1 receptor (hMCH1R) (Homo sapiens, UniProt Q99705); test: 125I-MCH ligand binding assay, hMCH; conditions: HEK 293 membranes, 0.2 nM 125I native-MCH; 100 μM or less list; read-out: IC50 in the hMCH binding assay
T2 construct: expressed in transfected cells; host or cells: HEK 293 (membranes)
T2 sequence (Q99705 whole entry): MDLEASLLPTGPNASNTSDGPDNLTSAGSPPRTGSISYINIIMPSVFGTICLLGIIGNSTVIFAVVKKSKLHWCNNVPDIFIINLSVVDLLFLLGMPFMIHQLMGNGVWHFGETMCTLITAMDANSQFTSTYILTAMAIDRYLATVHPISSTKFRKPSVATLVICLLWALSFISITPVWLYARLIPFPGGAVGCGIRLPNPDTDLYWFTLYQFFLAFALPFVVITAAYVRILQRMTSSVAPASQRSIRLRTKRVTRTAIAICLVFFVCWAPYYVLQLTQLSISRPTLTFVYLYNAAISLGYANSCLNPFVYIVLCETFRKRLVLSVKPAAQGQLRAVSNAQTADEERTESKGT
Experimental: as §1, §2, §3

Row | IC50 ([1]; 100 μM or less list) [µM] | IC50 [2] [µM] | IC50 ([1]; 100 nM or less list) [µM] | Structure (SMILES)
1 | ≤ 100 | – | – | COc1ccc([C@@H](c2nnnn2-c2c(C)cccc2C)N2CCN(C/C=C/c3ccccc3)CC2)cc1OC (racemic) [Compound 128, 1-{(3,4-dimethoxyphenyl)-[1-(2,6-dimethylphenyl)-1H-tetrazol-5-yl]methyl}-4-(3-phenylallyl)piperazine]
2 | ≤ 100 | – | – | CSc1ccc([C@@H](c2nnnn2-c2c(C)cccc2C)N2CCN(C/C=C/c3ccccc3)CC2)cc1 (racemic) [Compound 126, 1-[[1-(2,6-dimethylphenyl)-1H-tetrazol-5-yl]-(4-methylsulfanylphenyl)methyl]-4-(3-phenylallyl)piperazine]
3 | – | ≤ 100 | – | Cc1cccc(C)c1-n1nnnc1[C@H](c1ccccc1OCc1ccccc1)N1CCN(C/C=C/c2ccccc2)CC1 (racemic) [Compound 66, 1-{(2-benzyloxyphenyl)-[1-(2,6-dimethylphenyl)-1H-tetrazol-5-yl]methyl}-4-(3-phenylallyl)piperazine]
4 | ≤ 100 | – | – | Cc1cccc(C)c1-n1nnnc1[C@H](c1ccc(CC(C)C)cc1)N1CCN(C/C=C/c2ccccc2)CC1 (racemic) [Compound 130, 1-[[1-(2,6-dimethylphenyl)-1H-tetrazol-5-yl]-(4-isobutylphenyl)methyl]-4-(3-phenylallyl)piperazine]
5 | ≤ 100 | – | – | CC(C)(C)OC(=O)Cn1nnnc1[C@H](c1ccccc1)N1CCN(C/C=C/c2ccccc2)CC1 (racemic) [Compound 24, (5-{phenyl-[4-(3-phenylallyl)piperazin-1-yl]methyl}tetrazol-1-yl)acetic acid tert-butyl ester]
6 | ≤ 100 | – | – | C(=C\c1ccccc1)/CN1CCN([C@@H](c2ccccc2)c2nnnn2CCC(c2ccccc2)c2ccccc2)CC1 (racemic) [Compound 27, 1-{[1-(3,3-diphenylpropyl)-1H-tetrazol-5-yl]phenylmethyl}-4-(3-phenylallyl)piperazine]
7 | ≤ 100 | – | – | Cc1ccc([C@@H](c2nnnn2-c2c(C)cccc2C)N2CCN(C/C=C/c3ccccc3)CC2)cc1C (racemic) [Compound 123, 1-{(3,4-dimethylphenyl)-[1-(2,6-dimethylphenyl)-1H-tetrazol-5-yl]methyl}-4-(3-phenylallyl)piperazine]
8 | ≤ 100 | – | ≤ 0.1 | Cc1cccc(C)c1-n1nnnc1[C@H](c1cccc(Br)c1)N1CCN(C/C=C/c2ccccc2)CC1 (racemic) [Compound 139, 1-{(3-bromophenyl)-[1-(2,6-dimethylphenyl)-1H-tetrazol-5-yl]methyl}-4-(3-phenylallyl)piperazine]
9 | ≤ 100 | – | ≤ 0.1 | COc1cc([C@@H](c2nnnn2-c2c(C)cccc2C)N2CCN(C/C=C/c3ccccc3)CC2)ccc1OCc1ccccc1 (racemic) [Compound 129, 1-{(4-benzyloxy-3-methoxyphenyl)-[1-(2,6-dimethylphenyl)-1H-tetrazol-5-yl]methyl}-4-(3-phenylallyl)piperazine]
10 | ≤ 100 | – | – | CCc1ccc([C@@H](c2nnnn2-c2c(C)cccc2C)N2CCN(C/C=C/c3ccccc3)CC2)cc1 (racemic) [Compound 127, 1-[[1-(2,6-dimethylphenyl)-1H-tetrazol-5-yl]-(4-ethylphenyl)methyl]-4-(3-phenylallyl)piperazine]
11 | ≤ 100 | – | – | CCN([C@@H]1CCN(Cc2ccccc2)C1)[C@@H](c1cccc(C(F)(F)F)c1)c1nnnn1-c1c(C)cccc1C (racemic) [Compound 162, (1-benzylpyrrolidin-3-yl)-[[1-(2,6-dimethylphenyl)-1H-tetrazol-5-yl]-(3-trifluoromethylphenyl)methyl]ethylamine]
12 | ≤ 100 | – | – | Cc1cccc(C)c1-n1nnnc1[C@H](c1cccc(C(F)(F)F)c1)N1CCN(Cc2ccc3c(c2)OCO3)CC1 (racemic) [Compound 156, 1-benzo[1,3]dioxol-5-ylmethyl-4-[[1-(2,6-dimethylphenyl)-1H-tetrazol-5-yl]-(3-trifluoromethylphenyl)methyl]piperazine]
13 | ≤ 100 | – | ≤ 0.1 | Cc1cccc(C)c1-n1nnnc1[C@H](c1cc(Cl)cc(Cl)c1)N1CCN(C/C=C/c2ccccc2)CC1 (racemic) [Compound 137, 1-{(3,5-dichlorophenyl)-[1-(2,6-dimethylphenyl)-1H-tetrazol-5-yl]methyl}-4-(3-phenylallyl)piperazine]
14 | ≤ 100 | – | – | Cc1cccc(C)c1-n1nnnc1[C@H](c1ccc(Cl)cc1)N1CCN(C/C=C/c2ccccc2)CC1 [Compound 118, 1-{(4-chiorophenyl)-[1-(2,6-dimethylphenyl)-1H-tetrazol-5-yl]methyl}-4-(3-phenylallyl)piperazine]
15 | ≤ 100 | – | – | Cc1cccc(C)c1-n1nnnc1[C@H](c1ccccn1)N1CCN(C/C=C/c2ccccc2)CC1 (racemic) [Compound 75, 1-{[1-(2,6-dimethylphenyl)-1H-tetrazol-5-yl]pyridin-2-ylmethyl}-4-(3-phenylallyl)piperazine]
16 | ≤ 100 | – | ≤ 0.1 | Cc1cccc(C)c1-n1nnnc1[C@H](c1cccc(Cl)c1)N1CCN(C/C=C/c2ccccc2)CC1 (racemic) [Compound 140, 1-{(3-chlorophenyl)-[1-(2,6-dimethylphenyl)-1H-tetrazol-5-yl]methyl}-4-(3-phenylallyl)piperazine]
17 | ≤ 100 | – | – | C(=C\c1ccccc1)/CN1CCN([C@@H](c2ccccc2)c2nnnn2C2CCN(Cc3ccccc3)CC2)CC1 (racemic) [Compound 28, 1-{[1-(1-benzylpiperidin-4-yl)-1H-tetrazol-5-yl]phenylmethyl}-4-(3-phenylallyl)piperazine]
18 | ≤ 100 | – | – | Cc1cccc(C)c1-n1nnnc1C1(N2CCN(C/C=C/c3ccccc3)CC2)CCN(C)CC1 [Compound 99, 1-{4-[1-(2,6-dimethylphenyl)-1H-tetrazol-5-yl]-1-methylpiperidin-4-yl}-4-(3-phenylallyl)piperazine]
19 | ≤ 100 | – | ≤ 0.1 | CCOc1ccc([C@@H](c2nnnn2-c2c(C)cccc2C)N2CCN(C/C=C/c3ccccc3)CC2)cc1 (racemic) [Compound 136, 1-[[1-(2,6-dimethylphenyl)-1H-tetrazol-5-yl]-(4-ethoxyphenyl)methyl]-4-(3-phenylallyl)piperazine]
20 | ≤ 100 | – | – | COc1ccc([C@@H](c2nnnn2-c2c(C)cccc2C)N2CCN(C/C=C/c3ccccc3)CC2)cc1 (racemic) [Compound 122, 1-[[1-(2,6-dimethylphenyl)-1H-tetrazol-5-yl]-(4-methoxyphenyl)methyl]-4-(3-phenylallyl)piperazine]
21 | ≤ 100 | – | ≤ 0.1 | COc1cc(/C=C/CN2CCN([C@@H](c3cccc(C(F)(F)F)c3)c3nnnn3-c3c(C)cccc3C)CC2)ccc1O (racemic) [Compound 163, 4-(3-{4-[[1-(2,6-dimethylphenyl)-1H-tetrazol-5-yl]-(3-trifluoromethylphenyl)methyl]piperazin-1-yl}propenyl)-2-methoxyphenol]
22 | ≤ 100 | – | – | Cc1cccc(C)c1-n1nnnc1[C@H](c1ccc(C(C)C)cc1)N1CCN(C/C=C/c2ccccc2)CC1 (racemic) [Compound 125, 1-[[1-(2,6-dimethylphenyl)-1H-tetrazol-5-yl]-(4-isopropylphenyl)methyl}-4-(3-phenylallyl)piperazine]
23 | ≤ 100 | – | – | Cc1cccc(C)c1-n1nnnc1[C@H](c1ccc(F)c(F)c1)N1CCN(C/C=C/c2ccccc2)CC1 (racemic) [Compound 124, 1-{(3,4-difluoraphenyl)-[1-(2,6-dimethylphenyl)-1H-tetrazol-5-yl]methyl}-4-(3-phenylallyl)piperazine]
24 | ≤ 100 | – | – | Cc1cccc(C)c1-n1nnnc1C(c1cccc(C(F)(F)F)c1)N1CCN(CCCc2ccccc2)CC1 (racemic) [Compound 154, 1-[[1-(2,6-dimethylphenyl)-1H-tetrazol-5-yl]-(3-trifluoromethylphenyl)methyl]-4-(3-phenylpropyl)piperazine]
25 | ≤ 100 | – | – | CC(=O)Nc1ccc([C@@H](c2nnnn2-c2c(C)cccc2C)N2CCN(C/C=C/c3ccccc3)CC2)cc1 (racemic) [Compound 131, n-(4-{[1-(2,6-dimethylphenyl)-1H-tetrazol-5-yl]-[4-(3-phenylallyl)piperazin-1-yl]methyl}phenyl)acetamide]
26 | ≤ 100 | – | ≤ 0.1 | Cc1cccc(C)c1-n1nnnc1[C@H](c1cccc([N+](=O)[O-])c1)N1CCN(C/C=C/c2ccccc2)CC1 (racemic) [Compound 138, 1-[[1-(2,6-dimethylphenyl)-1H-tetrazol-5-yl]-(3-nitrophenyl)methyl]-4-(3-phenylallyl)piperazine]
